Read-outs that look alike come from different tables or passages of the source. Peptide text beside a SMILES is read from it. * marks the point of attachment. Cbz = O=C(OCc1ccccc1)*
System: SARS-CoV-2
Test: microbe, parasite or virus in culture
Format: cell-based
Conditions: for IC50: Severe acute respiratory syndrome coronavirus 2, 120 h
[1] = half maximal concentration able to recover the cytopathic effect of infection, VeroE6-EGFP cells, 0.01 MOI, 5 days, 8 concentrations, read-out: IC50
[2] = confluence of SARS-CoV-2 infected VeroE6-EGFP cells after test compound treatment compared to control wells, 5 days

| Compound | Maximum confluence reached (%) (5 days) | further results |
| --- | --- | --- |
| CN(Cc1cnc2nc(N)nc(N)c2n1)c1ccc(C(=O)N[C@@H](CCC(=O)O)C(=O)O)cc1 [compound 1, N-[4-[N-(2,4-Diaminopteridin-6-ylmethyl)-N-methylamino]benzoyl]-L-glutamic acid] |  | IC50 [1]: 0.05 µM; Maximum confluence reached (%) [2]: 64% |
| COc1cc(NCc2ccc3nc(N)nc(N)c3c2C)cc(OC)c1OC [compound 2, 2,4-Diamino-5-methyl-6-[(3,4,5-trimethoxyanilino)methyl]quinaz oline 5-Methyl-6-[[(3,4,5-trimetoxyphenyl)amino]methyl]-2,4-quinazolinediamine] | 78.23 |  |
| CCCCOCCOc1ccc(-c2ccc3c(c2)C=C(C(=O)Nc2ccc([S@@+]([O-])Cc4cncn4CCC)cc2)CCCN3CC(C)C)cc1 [compound 65, (-)-(S)-8-[4-(2-Butoxyethoxy)phenyl]-1-isobutyl-N-[4-(1-propyl-1H-imidazol-5-ylmethylsulfinyl)phenyl]-1,2,3,4-tetrahydro-1-benzazocine-5-carboxamide] | 70.92 | IC50 [1]: 55 µM |
| Cc1ccc(C(=O)Nc2cccc(C(F)(F)F)c2)cc1Nc1nc(-c2cccnc2)nc2c1cnn2C [compound 62, 4-methyl-3-{[1-methyl-6-(3-pyridinyl)-1H-pyrazolo[3,4-d]pyrimidin-4-yl]amino}-N-[3-(trifluoromethyl)phenyl]benzamide] |  | Maximum confluence reached (%): 88.43% |
| O=C(O)c1ccc(N2C(=O)C(=Cc3ccc(-c4ccc([N+](=O)[O-])cc4)o3)C=C2c2ccccc2)cc1 [compound 105, 4-[3-[5-(4-Nitrophenyl)furan-2-ylmethylene]-2-oxo-5-phenyl-2,3-dihydro-1H-pyrrol-1-yl]benzoic acid] | 52.15 | IC50: 236 µM |
| CCN(CC)CCOc1ccc(C(=C(Cl)c2ccccc2)c2ccccc2)cc1.O=C(O)CC(O)(CC(=O)O)C(=O)O [compound 82, 2-[4-(2-Chloro-1,2-diphenylvinyl)phenoxy]-N,N-diethylethanamine citrate] | 54.73 |  |
| CC(C)C[C@H](NC(=O)CNC(=O)c1cc(Cl)ccc1Cl)B(O)O [compound 108, 1(R)-[2-(2,5-Dichlorobenzamido)acetamido]-3-methylbutylboronic acid] | 30.79 | IC50: 135 µM |
| O=C(C1CC1)N1CC[C@@H](Cc2n[nH]c(=O)n2-c2ccc(-c3ccc4ccoc4c3)cc2)C1 [compound 67, 4-[4-(1-Benzofuran-6-yl)phenyl]-5-[1-(cyclopropylcarbonyl)pyrrolidin-3(S)-ylmethyl]-3,4-dihydro-2H-1,2,4-triazol-3-one] | 31.06 | IC50: 17 µM |
| Cc1cc(O[C@@H](CCC(F)(F)F)c2ccc(C(=O)NCCC(=O)O)cc2)cc(C)c1-c1ccc(C(C)(C)C)cc1 [compound 57, N-(4-[(1S)-1-[(4'-tert-Butyl-2,6-dimethylbiphenyl-4-yl)oxy]-4,4,4-trifluorobutyl]benzoyl)-beta-alanine] | 39.53 |  |
| C[C@@H]1COCCN1c1cc(=O)n2c(n1)N(Cc1cncc(Cl)c1)[C@H](C(F)(F)F)CC2 [compound 54, (8S)-9-[(5-Chloropyridin-3-yl)methyl]-2-[(3R)-3-methylmorpholin-4-yl]-8-(trifluoromethyl)-6,7,8,9-tetrahydro-4H-pyrimido[1,2-a]pyrimidin-4-one] |  | Maximum confluence reached (%) [2]: 89% |
| O=C(c1c2ccccc2cc2ccccc12)N1CCC(N2CCC[C@@H](C(=O)N3CCOCC3)C2)CC1 [compound 81, 1-[1'-(Anthracen-9-ylcarbonyl)-1,4'-bipiperidin-3(R)-yl]-1-(4-morpholinyl)methanone] |  | Maximum confluence reached (%) [2]: 51% |
| CC(C)(C)c1cc(C=C(C#N)C#N)cc(C(C)(C)C)c1O [compound 103, (3,5-Di-tert-butyl-4-hydroxybenzylidene)malononitrile] | 51.51 | IC50: 205 µM |
| Cn1c(Nc2ccc(C(F)(F)F)cc2)nc2cc(Oc3ccnc(-c4nc(C(F)(F)F)c[nH]4)c3)ccc21 [compound 70, 1-Methyl-N-[4-(trifluoromethyl)phenyl]-5-[2-[4-(trifluoromethyl)-1H-imidazol-2-yl]pyridin-4-yloxy]-1H-benzimidazol-2-amine] | 44.1 |  |
| O=C(NCCN1CCC2(CC1)C(=O)NCN2c1cccc(F)c1)c1ccc2ccccc2c1 [compound 56, N-[2-[1-(3-Fluorophenyl)-4-oxo-1,3,8-triazaspiro[4.5]dec-8-yl]ethyl]naphthalen-2-carboxamide] | 98.46 |  |
| CC(C)C[C@@H](C=O)NC(=O)[C@H](CC(C)C)NC(=O)[C@H](CC(C)C)NC(=O)OCc1ccccc1 [compound 52, Benzyloxycarbonyl-L-leucyl-L-leucyl-L-leucinal] (Cbz-Leu-Leu-Leu-aldehyde) | 82.81 |  |
| COc1cc2c(N3CCN(C(=O)Nc4ccc(OC(C)C)cc4)CC3)ncnc2cc1OCCCN1CCCCC1 [compound 35, N-(4-Isopropoxyphenyl)-4-[6-methoxy-7-[3-(1-piperidinyl)propoxy]quinazolin-4-yl]piperazine-1-carboxamide] | 80.09 |  |
| CN(C)CCC=C1c2ccccc2C=Cc2ccccc21.Cl [compound 90, 3-(5H-Dibenzo[a,d]cyclohepten-5-ylidene)-N,N-dimethylpropan-1-amine hydrochloride] |  | Maximum confluence reached (%): 70,19%; IC50: 12.1 µM |
| CC(C)c1cnn2c(NCc3ccccc3)cc(NCCCCCCN)nc12 [compound 48, N5-(6-Aminohexyl)-N7-benzyl-3-isopropylpyrazolo[1,5-a]pyrimidine-5,7-diamine] | 47.31 |  |
| CCN(CC)CCOc1ccc2c(c1)C(=O)c1cc(OCCN(CC)CC)ccc1-2 [compound 84, 2,7-Bis[2-(diethylamino)ethoxy]-9H-fluoren-9-one] | 68.89 |  |
| O=[N+]([O-])c1ccc(N/N=C/c2sc(N3CCOCC3)nc2-c2ccccc2)c(S(=O)(=O)Nc2ccccc2Cl)c1 [compound 73, N-(2-chlorophenyl)-2-[(2E)-2-[(2-morpholin-4-yl-4-phenyl-1,3-thiazol-5-yl)methylidene]hydrazinyl]-5-nitrobenzenesulfonamide] | 53.9 |  |
| c1cncc(CN2CCC(n3ncc4c(N5CCOCC5)nc(-c5ccc6[nH]ccc6c5)nc43)CC2)c1 [compound 32, 6-(1H-Indol-5-yl)-4-(4-morpholinyl)-1-[1-(pyridin-3-ylmethyl)piperidin-4-yl]-1H-pyrazolo[3,4-d]pyrimidine] | 67.69 |  |
| CC1=NN(c2ccc(C)c(C)c2)C(=O)/C1=N\Nc1cccc(-c2cccc(C(=O)O)c2)c1O [compound 37, 3'-[2(Z)-[1-(3,4-Dimethylphenyl)-3-methyl-5-oxo-4,5-dihydro-1H-pyrazol-4-ylidene]hydrazino]-2'-hydroxybiphenyl-3-carboxylic acid] | 63.17 | IC50: 58.1 µM |
| CCC(C/C=C/c1ccccc1)(c1ccccc1)N(C)CC1CC1 (single isomer, unassigned; (+)) [compound 89, (+)-N-(Cyclopropylmethyl)-N-[1-ethyl-1,4-diphenyl-3(E)-butenyl]-N-methylamine] | 58.34 | IC50: 11.2 µM |
| COc1cc2c(NC3CCN(C4CCCCC4)CC3)nc(N3CCCN(C(C)C)CC3)nc2cc1OCCCN1CCCCC1 [compound 59, N-(1-Cyclohexylpiperidin-4-yl)-6-methoxy-7-[3-(1-piperidinyl)propoxy]-2-[4-(propan-2-yl)perhydro-1,4-diazepin-1-yl]quinazolin-4-amine] | 80.08 |  |
| Cn1nc(C(C)(C)C)cc1C(=O)N[C@@H](Cc1cccc(Cl)c1)C(=O)NCC#N [compound 63, 3-tert-butyl-N-{(1S)-1-(3-chlorobenzyl)-2-[(cyanomethyl)amino]-2-oxoethyl}-1-methyl-1H-pyrazole-5-carboxamide] | 96.18 |  |
| O=S(=O)(NCC1CC1)c1ccc(Nc2nccc(N3CCCc4cc(O)ccc43)n2)cc1 [compound 86, N-(Cyclopropylmethyl)-4-[[4-(3,4-dihydro-6-hydroxy-1(2H)-quinolinyl)-2-pyrimidinyl]amino]benzenesulfo namide] | 55.04 |  |
| Nc1nc(N)c2nc(CNc3ccc(C(=O)N[C@@H](CCC(=O)O)C(=O)O)cc3)cnc2n1 [compound 10, N-[4-(2,4-diamino-6-pteridinylmethylamino)benzolyl]-L-glutamic acid] | 72.54 |  |
| O=C(Nc1ccc(Cl)c(Cl)c1)Nc1ccc(Cl)c(Cl)c1 [compound 72, 1,3-Bis(3,4-dichlorophenyl)urea] | 45.87 |  |
| Cc1ccc(NC(=O)Nc2cc(C(F)(F)F)ccc2F)cc1Nc1ccc2c(c1)NC(=O)C2=Cc1ccc[nH]1 [compound 92, 1-[2-Fluoro-5-(trifluoromethyl)phenyl]-3-[4-methyl-3-[2-oxo-3-(1H-pyrrol-2-ylmethylene)-2,3-dihydro-1H-indol-6-ylamino]phenyl]urea] | 75.5 | IC50: 5.23 µM |

From patent EP4000606A1, “COMPOUNDS FOR CORONAVIRUS INFECTION TREATMENT AND/OR PREVENTION” (priority 2020, dated 2022)
